Test results from patent EP3366310A1, “L-ARABINOSE AND USES THEREOF AGAINST VIBRIO GENUS BACTERIA” (priority 2017, dated 2018).

What was measured:
V. cholerae N16961 [1] = assay: Microscopy inspection of cell morphology (spherical cells) after exposure to carbon sources; type: cell-based, Vibrio cholerae
Experimental: Cells were grown to exponential phase and spread on a 1% (w/v) agar pad (ultrapure agarose, Invitrogen) for analysis. For snapshot analyses, cells images were acquired using a DM6000-B (Leica) microscope. For time-lapse analyses the agarose pad was made using M9-MM and images were acquired using an Evolve 512 EMCCD camera (Roper Scientific) attached to an Axio Observe spinning disk (Zeiss).
(§1) During experiments in which inventors used an arabinose-inducible promoter to express fluorescently tagged proteins in V. cholerae, they occasionally observed the presence of spherical cells. […]. To better understand this phenotype, inventors grew V. cholerae cells to exponential phase in different liquid media and added increasing concentrations of L-Ara. After a few hours, they inspected the cells morphology at the microscope. […] To see the effect of L-Ara on cell proliferation and growth, overnight cultures were diluted into fresh media containing increasing amounts of the inducer. The OD of these cultures was monitored over time (Figure 2). […].

V. cholerae N16961 [2] = assay: Growth curves (optical density at 600 nm over time); type: cell-based, Vibrio cholerae; settings: for effect on V. cholerae growth or morphology: M9-MM, 0.2% of carbon source (Table 1 and Figure 5)
Experimental: Cells were grown at 30°C in M9 minimal medium supplemented with 0.2% fructose and 1 µg/ml thiamine (M9-MM) and M9-MM + 0.1% casamino acids (M9-MM + CAA) in a 96-well microtiter plate and the optical density at 600 nm followed over time in a Tecan plate reader. The growth curves plotted are the average of three replicates; the standard deviation is represented for each time point.
as §1

[3] = test system: EPV50 (derived from El Tor isolate N16961); assay: microbe, parasite or virus in culture; type: cell-based; settings: Vibrio cholerae
Experimental: An EPV50 (derived from El Tor isolate N16961) overnight culture was diluted 200 times in M9-MM, followed by 2 hours of growth at 30°C before 0.2% L-Ara was added and growth continued for other 5 hours. Cells were checked for complete transition to spherical morphology at the microscope. Serial dilutions of t0 (before L-Ara addition) and t1 (after L-Ara treatment) samples were plated on Luria Bertani (LB) agarose plates and the number of colonies used to calculate the CFU at t0 and t1. The ratio CFU t1 / CFU t0 is used to calculate the percentage of cells able to survive L-Ara treatment and revert to proliferating cells.

EPV50 = assay: Muropeptide analysis (peptidoglycan isolation and UPLC); type: cell-based, Vibrio cholerae
Experimental: EPV50 overnight cultures were diluted 200 times in M9-MM and grown at 30°C. 100 ml were centrifuged after 7 hours of growth and 1L of culture to which 0.2% L-Ara was added after 2 hours was harvested after further 5 hours of incubation. Cells were checked for complete transition to spherical morphology at the microscope. Previously described methods were followed for muropeptide isolation and ultra-performance liquid chromatography (UPLC) analysis [Desmarais et al. and Möll et al.]. After boiling for 2 hours cell pellets with SDS (sodium dodecyl sulfate) the lysates were left stirring over night at room temperature. Cell wall material was pelleted, washed with MQ water to remove the SDS, and digested with pronase E to remove Braun's lipoprotein. Purified peptidoglycan was re-suspended in MQ water and treated overnight with muramidase at 37°C. Soluble muropeptides were reduced with sodium borohydride and the pH then adjusted to 3.5 with phosphoric acid. Samples were injected in an ultra-performance liquid chromatography (UPLC) system to obtain the muropeptide profiles. UPLC separation was performed on a Waters UPLC system equipped with an ACQUITY UPLC BEH C18 Column, 130 Å, 1.7 µm, 2.1 mm × 150 mm (Waters) and a dual wavelength absorbance detector using a linear gradient from buffer A (phosphate buffer 50 mM, pH 4.35) to buffer B (phosphate buffer 50 mM, pH 4.95, methanol 15% (vol/vol)) in a 22-min run with a 0.25 mL/min flow. Elution of muropeptides was detected at 204 nm. Identity of the peaks was assigned by comparison of the retention times and profiles to other chromatograms in which mass spectrometry data has been collected. The relative amounts of the muropeptides and the percentage of cross-linkage were calculated as described by Glauner et al. To calculate the amount of peptidoglycan per cell, the total area of the muropeptides was normalized to the OD of the culture. All values are the means of three independent experiments.

[4] = M9-MM supplemented with casamino acids (CAA)
[5] = muropeptide group, M9-MM, 0.2% L-Ara for 5 hours

Row | Structure (SMILES) | L-Ara concentration at which all cells exhibited the spherical phenotype (V. cholerae N16961 [1]; [4]) [%] | L-Ara concentration at which spherical cells started to appear (V. cholerae N16961 [1]; [4]) [%] | cell morphology (V. cholerae N16961 [1]; M9-MM, 0.02% L-Ara, a few hours) | cell shape (V. cholerae N16961 [1]; M9-MM, 0.1% L-Ara (Figure 1A)) | L-Ara concentration at which cells became completely round (V. cholerae N16961 [1]; M9-MM, a few hours) [%] | L-Ara concentration that triggers a toxic response (stop of proliferation, loss of rod-shape) (V. cholerae N16961 [1]; Vibrio cholerae, summary statement) [%] | effect on cell growth (OD) (V. cholerae N16961 [2]; M9-MM and M9-MM+CAA, increasing amounts of L-Ara) | effect on V. cholerae growth or morphology (V. cholerae N16961 [2]) | killing at 0.2 % ([3]; 5 h, read-out: cell death) [%] | viability at 0.2 % ([3]; M9-MM, 0.2% L-Ara for 5 hours, ratio CFU t1 / CFU t0, read-out: percentage of survival to L-Ara treatment) [%] | Anhydro-muropeptides (%) (EPV50; [5]) | DAP-DAP cross-linked muropeptides (%) (EPV50; [5]) | Dimers (%) (EPV50; [5]) | Trimers (%) (EPV50; [5]) | Monomers (%) (EPV50; muropeptide group, M9-MM, 0.2% L-Ara for 5 hours, mean of three experiments (±SD)) | Average glycan chain length (EPV50; peptidoglycan feature, calculated from the number of anhydro-muropeptides, M9-MM, 0.2% L-Ara for 5 hours) | Total cross-linkage (%) (EPV50; peptidoglycan feature, M9-MM, 0.2% L-Ara for 5 hours) | amount of peptidoglycan per cell, times lower than in rod-shaped (non-treated) cells (EPV50; spherical L-Ara-treated bacteria, 0.2% L-Ara) | glycan chains, times shorter than in non-treated cells (EPV50; spherical L-Ara-treated cells, 0.2% L-Ara)
1 | O=C[C@H](O)[C@@H](O)[C@@H](O)CO [L-Arabinose] | 0.5 | 0.2 | normal rod-shape | spherical shape with a heterogeneous diameter size | 0.1 | 0.02 | arrested V. cholerae cell growth | deleterious effects on cell growth or cell morphology | ~50 | ~50 | 21.9 (±3.7) % | 7.5 (±0.9) % | 47.2 (±3.1) % | 12.6 (±4.8) % | 40.2 (±3.2) % | 7.5 (±1.1) | 47.2 (±5.0) % | around 10 times | around 2 times
2 | O=C[C@@H](O)[C@H](O)[C@H](O)CO [D-Arabinose, reference compound] | – | – | – | – | – | – | – | none of them, including D-Arabinose, affected V. cholerae growth or morphology | – | – | – | – | – | – | – | – | – | – | –
